Structures are written as SMILES. Active and inactive are the calls of the source. The calls are words filed in the database; no cut-off is given here.

The test system of one data set is Plasmodium falciparum. The data set is described as follows: Antimalarial activity against multi drug-resistant Plasmodium falciparum K1 infected in human erythrocytes assessed as reduction in parasite growth preincubated for 24 hrs followed by [3H]hypoxanthine addition and measured after 18 hrs by scintillation counting method. The class given is functional, organism-based. As to conditions: K1, Erythrocyte.

The next data set has as its system Vero. Description: Cytotoxicity against African green monkey Vero cells assessed as reduction in cell viability by tryphan blue exclusion method. Format: cell-based. As to conditions: Chlorocebus sabaeus.
The nature of data set [1]: Selectivity index, ratio of IC50 for cytotoxicity against African green monkey Vero cells to IC50 for antimalarial activity against multi drug-resistant Plasmodium falciparum K1 infected in human erythrocytes. Format: toxicity, cell-based. As to conditions: read-out: Ratio IC50.
Data set [2] has as its system Mycobacterium tuberculosis. Description: Antimycobacterial activity against Mycobacterium tuberculosis H37Ra ATCC 25177. Format: functional, organism-based.

For orientation: IC50 means the concentration that inhibits the measured activity by half. Consider `C[C@H](CC[C@H](OC(=O)[C@@H](C)CC(=O)C[C@@H](C)[C@H]1C[C@@H](O)[C@@]2(C)C3=C(C(=O)C[C@]12C)[C@@]1(C)CCC(=O)C(C)(C)[C@@H]1CC3=O)[C@](C)(O)CO)[C@H]1CC[C@@]2(C)C3=CC[C@H]4C(C)(C)C(=O)CC[C@]4(C)C3=CC[C@]12C`, for which the half-inhibitory concentration (IC50) in the data set on Plasmodium falciparum came to 0.05 µM; with Vero, 0.21 µM. Also, the selectivity ratio in data set [1] is 4.2. Further, the result in data set [2] was inactive.

Turning to `C[C@H](CC[C@H](OC(=O)[C@@H](C)CC(=O)C[C@@H](C)[C@H]1C[C@@H](O)[C@@]2(C)C3=C(C(=O)C[C@]12C)[C@@]1(C)CC[C@@H](O)C(C)(C)[C@@H]1CC3=O)[C@](C)(O)CO)[C@H]1CC[C@@]2(C)C3=CC[C@H]4C(C)(C)C(=O)CC[C@]4(C)C3=CC[C@]12C`, the figures for the concentration for half-maximal inhibition (IC50) in the data set on Plasmodium falciparum and in the data set with Vero were 0.46 µM and 10 µM, respectively. The selectivity ratio in data set [1] was found to be 2.2. Also, the result in data set [2] was inactive.

As for `C[C@H](CC(=O)C[C@H](C)C(=O)O)[C@H]1C[C@@H](O)[C@@]2(C)C3=C(C(=O)C[C@]12C)[C@@]1(C)CCC(=O)[C@@](C)(CO)[C@@H]1CC3=O`, the IC50 is at least 17 µM with Plasmodium falciparum and at least 87 µM in the data set on Vero. Moreover, in data set [2], the result was inactive.

Take `CC(=O)O[C@@H]1C(=O)C2=C(C(=O)C[C@H]3C(C)(C)C(=O)CC[C@]23C)[C@]2(C)[C@H](O)C[C@H]([C@H](C)CC(=O)C[C@H](C)C(=O)O)[C@@]12C`: the IC50 with Plasmodium falciparum was at least 17 µM; in the data set on Vero, at least 87 µM. Further, the result in data set [2] was inactive.

`C[C@H](CC(=O)C[C@H](C)C(=O)O)[C@H]1C[C@@H](O)[C@@]2(C)C3=C(C(=O)C[C@]12C)[C@@]1(C)CCC(=O)C(C)(C)[C@@H]1CC3=O`: the IC50 was at least 17 µM in the data set on Plasmodium falciparum and at least 87 µM with Vero. Also, the outcome in data set [2] was inactive.

`C[C@H](CC(=O)C[C@H](C)C(=O)O)[C@H]1C[C@@H](O)[C@@]2(C)C3=C(C(=O)C[C@]12C)[C@@]1(C)CC[C@@H](O)C(C)(C)[C@@H]1CC3=O`: the concentration for half-maximal inhibition (IC50) in the data set on Plasmodium falciparum was at least 17 µM; in the data set with Vero, at least 87 µM. The result in data set [2] was inactive.

Turning to `C[C@H](CC(=O)C[C@H](C)C(=O)O)[C@H]1C[C@@H](O)[C@@]2(C)C3=C(C(=O)[C@@H](O)[C@]12C)[C@@]1(C)CCC(=O)C(C)(C)[C@@H]1CC3=O`, the concentration for half-maximal inhibition (IC50) with Plasmodium falciparum is at least 17 µM; in the data set with Vero it was at least 87 µM. Further, the result in data set [2] was inactive.
